According to the supplement of paper PMC10307832:

Tests used:
Assay in all cases: relative viability (nuclei count vs DMSO), 5 days (fraction); higher = more cells survive
RU-SKI 43 + Foretinib = compound: CC[C@@H](C)CNCC(=O)N1CCC2=C([C@@H]1COC3=CC=CC(=C3)C)C=CS2 [RU-SKI 43] + COc1cc2c(Oc3ccc(NC(=O)C4(C(=O)Nc5ccc(F)cc5)CC4)cc3F)ccnc2cc1OCCCN1CCOCC1 [Foretinib] (partner 0.25 µM)
Procedure, shortened: (§1)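 Dosing by pin tool came one day after lung cancer cell lines were seeded in 1536-well plates, using either one drug or a fixed anchor-drug dose plus five library-drug doses (not always all listed) in √10 steps. After 5 days, nuclei were counted on 4× images. Relative viability is treated-well nuclei count divided by vehicle-well nuclei count, and values are medians of duplicate plates.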

Irinotecan + Luminespib = compound: CCc1c2c(nc3ccc(OC(=O)N4CCC(N5CCCCC5)CC4)cc13)-c1cc3c(c(=O)n1C2)COC(=O)[C@]3(O)CC [Irinotecan] + CCNC(=O)c1noc(-c2cc(C(C)C)c(O)cc2O)c1-c1ccc(CN2CCOCC2)cc1 [Luminespib] (partner 0.01 µM)
Procedure, shortened: as §1

Irinotecan + Foretinib = compound: CCc1c2c(nc3ccc(OC(=O)N4CCC(N5CCCCC5)CC4)cc13)-c1cc3c(c(=O)n1C2)COC(=O)[C@]3(O)CC [Irinotecan] + COc1cc2c(Oc3ccc(NC(=O)C4(C(=O)Nc5ccc(F)cc5)CC4)cc3F)ccnc2cc1OCCCN1CCOCC1 [Foretinib] (partner 0.25 µM)
Procedure, shortened: as §1

MK-8033 + AZD7762 = compound: Cn1cc(-c2cnc3ccc4ccc(CS(=O)(=O)NCc5ccccn5)cc4c(=O)c3c2)cn1 [MK-8033] + NC(=O)Nc1cc(-c2cccc(F)c2)sc1C(=O)N[C@H]1CCCNC1 [AZD7762] (partner 0.2 µM)
Procedure, shortened: as §1

Cell Line | relative viability (RU-SKI 43 + Foretinib; first compound 0.1 µM) | relative viability (RU-SKI 43 + Foretinib; first compound 0.3162 µM) | relative viability (RU-SKI 43 + Foretinib; first compound 1 µM) | relative viability (RU-SKI 43 + Foretinib; first compound 3.162 µM) | relative viability (RU-SKI 43 + Foretinib; first compound 10 µM) | relative viability (Irinotecan + Luminespib; first compound 0.6325 µM) | relative viability (Irinotecan + Luminespib; first compound 2 µM) | relative viability (Irinotecan + Luminespib; first compound 6.325 µM) | relative viability (Irinotecan + Luminespib; first compound 20 µM) | relative viability (Irinotecan + Foretinib; first compound 0.6325 µM) | relative viability (Irinotecan + Foretinib; first compound 2 µM) | relative viability (Irinotecan + Foretinib; first compound 6.325 µM) | relative viability (Irinotecan + Foretinib; first compound 20 µM) | relative viability (MK-8033 + AZD7762; first compound 0.02 µM) | relative viability (MK-8033 + AZD7762; first compound 0.06325 µM) | relative viability (MK-8033 + AZD7762; first compound 0.2 µM) | relative viability (MK-8033 + AZD7762; first compound 0.6325 µM) | relative viability (MK-8033 + AZD7762; first compound 2 µM)
NCI-H1651 | 0.896 | 0.849 | 0.864 | 0.888 | 0.848 | 0.573 | 0.522 | 0.281 | 0.2 | 0.593 | 0.59 | 0.295 | 0.205 | 0.551 | 0.397 | 0.482 | 0.479 | 0.564
NCI-H1355 | 0.914 | 1.22 | 1.01 | 1.02 | 0.936 | – | 0.515 | 0.308 | 0.278 | – | 0.622 | 0.321 | 0.259 | 0.75 | 0.639 | 0.633 | 0.735 | 0.687
NCI-H1563 | 0.918 | 0.985 | 0.957 | 0.855 | 0.755 | 0.608 | 0.269 | 0.497 | 0.524 | 0.966 | 0.928 | 0.975 | 0.425 | – | – | – | – | –
NCI-H1650 | 1.05 | 1.22 | 1.24 | 1.02 | 0.887 | – | 0.212 | 0.277 | 0.271 | – | 0.956 | 0.432 | 0.446 | – | – | – | – | –
HCC-78 | 0.541 | 0.6 | 0.592 | 0.591 | 0.479 | – | – | – | – | 0.695 | 0.491 | 0.282 | 0.24 | 0.712 | 0.517 | 0.719 | 0.557 | 0.566
NCI-H1437 | 1.22 | 1.24 | 1.37 | 1.2 | 1.22 | 0.955 | 0.723 | 0.4 | 0.338 | 0.954 | 0.616 | 0.42 | 0.368 | 1.07 | 1.18 | 1.06 | 1.1 | 1.11
BEN | 0.789 | 0.548 | 0.992 | 0.53 | 0.705 | 0.231 | 0.374 | 0.176 | 0.294 | 0.328 | 0.613 | 0.206 | 0.324 | 0.82 | 0.634 | 0.76 | 0.599 | 0.788
LCLC-103H | 0.759 | 0.896 | 0.91 | 0.843 | 0.783 | 0.83 | 0.502 | 0.348 | 0.501 | 0.59 | 0.522 | 0.373 | 0.347 | 0.756 | 0.712 | 0.788 | 0.741 | 0.82
NCI-H1915 | 1.19 | 1.23 | 1.17 | 1.15 | 1.14 | 0.346 | 0.36 | 0.149 | 0.132 | 0.45 | 0.283 | 0.192 | 0.2 | 0.671 | 0.627 | 0.684 | 0.681 | 0.711
NCI-H2085 | 0.928 | 0.772 | 0.91 | 0.93 | 0.934 | 0.312 | 0.431 | 0.445 | 0.519 | 1.06 | 0.775 | 0.464 | 0.54 | 0.975 | 0.878 | 0.923 | 0.988 | 0.836
NCI-H23 | 1.01 | 0.882 | 1.12 | 1.27 | 0.973 | 0.228 | 0.394 | 0.332 | 0.241 | 0.471 | 0.258 | 0.227 | 0.25 | 0.302 | 0.231 | 0.215 | – | 0.249
EPLC-272H | 0.717 | 0.677 | 0.745 | 0.744 | 0.592 | 0.203 | 0.368 | 0.287 | 0.281 | 0.283 | 0.235 | 0.168 | 0.297 | 0.207 | 0.144 | 0.201 | 0.167 | 0.19
EBC-1 | 0.103 | 0.0955 | 0.101 | 0.0987 | 0.109 | – | – | – | – | 0.0988 | 0.1 | 0.115 | 0.112 | – | – | – | – | –
SK-MES-1 | 1.09 | 1.04 | 0.97 | 1.1 | 0.907 | 0.818 | 0.521 | 0.324 | 0.234 | 0.915 | 0.644 | 0.441 | 0.285 | – | – | – | – | –
A549 | 1.12 | 1.1 | 1.06 | 0.93 | 0.852 | – | – | – | – | 0.885 | 0.611 | 0.122 | 0.0515 | – | – | – | – | –
NCI-H2126 | 1.09 | 1.05 | 1.17 | 1.28 | 1.33 | – | 0.773 | 0.379 | 0.167 | – | 1.18 | 0.67 | 0.51 | 1.06 | 0.993 | 1.02 | 0.942 | 1.02
NCI-H2087 | 1.07 | 1.25 | 1.24 | 1.28 | 0.961 | 0.158 | 0.183 | 0.2 | 0.261 | 0.748 | 0.326 | 0.169 | 0.192 | 1.43 | 1.32 | 1.22 | 1.3 | 1.22
